The values below come from US8816047B2 (Cure DM Group Holdings, LLC, priority 2007, dated 2014).

“Also recorded” adds a separate entry of the source. Like-named read-outs stand apart in the source and are kept apart here. Where a SMILES comes first, the peptide text is derived from it. Bridges are numbered along the chain shown (N, C = ends). Roman numbers before positions name the chains, in order. Where no end group is shown, it is not given here.

Data set [1] can be described thus: In vitro stability of peptides to proteases in human plasma at 37 C (HPLC/LC-MS). The data set is classed as in vitro ADME. The settings on record: human plasma 37° C.; for stability to plasma proteases: 1 hr. The procedure: The peptides were incubated in human plasma, at 37° C. Sample incubations were performed over a period of 1 hr. Individual time points of 1, 5, 10, 30, and 60 minutes were used to follow the reactions. Deactivation of plasma proteases at each time point was achieved by heating the samples at 100° C. for 1 min. Following work-up the plasma treated samples were evaluated by reverse phase chromatography in series with at mass spectrometer, HPLC/LC-MS, against control samples.
Plasma Treated with HIP and Optimized HIP peptides were evaluated over 1, 5, 10, 30 and 60 minutes. For each time point 0.70 ml of plasma was pipetted into a 10 ml test tube. To each was added 0.30 ml of a stock solution of HIP or Optimized HIP peptide (1.66 mg/ml) prepared in phosphate buffered saline. The plasma/peptide samples were incubated at 37° C. for each time point followed by heating at 100° C. to inactivate the proteolytic activity of plasma proteases. Following inactivation, the samples were diluted with 1 ml of H2O, centrifuged and the supernatant liquid removed for analysis.
Samples were analyzed on a C-18 reverse phase column (50 mm×2.0 mm) using 0.07% TFA in H2O as buffer A and 0.07% TFA in acetonitrile as buffer B. A linear gradient of 98% A/2% B progressing to 30% A/70% B over 10 min. was used at a flow rate of 0.4 ml/min. Eluant was monitored by UV at a wavelength of 220 nm and by mass spectroscopy. Comparisons of chromatographic profiles of plasma treated peptides (37° C.) against peptide reference samples and plasma controls were used to determine the relative stability of peptide to plasma treatment.
T=0: Plasma (0.7 ml) plus peptide stock solution (0.3 ml), heat 100° C. 1 min. add 1 ml H2O, centrifuge.
Plasma background control: 0.7 ml plasma plus PBS (0.3 ml), heat 100° C. 1 min, add 1 ml H2O, centrifuge.
Peptide reference heat treated: Peptide stock solution (0.3 ml) plus 0.7 ml PBS, heat 100° C. 1 min., add 1 ml H2O.
Peptide reference no heat: Peptide stock solution (0.3 ml) add 0.7 ml PBS plus 1 ml H2O.

A short description of data set [2]: human plasma. The settings on record: 37° C., up to 60 minutes.
Data set [3] can be described thus: Pharmacokinetics and absolute bioavailability in Sprague Dawley rats, IV and SC 4 mg/kg (LC/MS MS). The class given is in vivo, rat. The settings on record: for C1 h / F / plasma levels / C0 / AUC / half-life / Cmax / Tmax: rat; for F: SQ versus IV; for appearance of animals post-dosing: all times post-dosing, each route; for plasma levels: intravenous or subcutaneous; for C0: estimated; for half-life: read-out: T1/2 (converted). The procedure:
The absolute bioavailability and pharmacodynamic study was conducted in Sprague Dawley rats following intravenous and subcutaneous dose administration of HIP2 (FIG. 24), Optimized HIP2B and INGAP. The purpose was to determine the absorption, absolute bioavailability and plasma levels of HIP2, Optimized HIP2B and INGAP in male rats following two different routes of administration.
Six Groups of five male Sprague Dawley rats were administered HIP2, HIP2B or INGAP by intravenous and subcutaneous routes as follows in table below.
Ten serial blood plasma samples (0.03 ml each) were collected from a jugular vein catheter from five animals per group at 5, 10, 15, 30 minutes, 45 minutes followed by samples at 1, 2, 3, 8, and 24 hours post-dose. Plasma was collected into tubes containing EDTA. Following collection, samples were kept chilled on cool packs before centrifugation and transfer to pre-labeled microfuge tubes for storage at −70° C. or below.
Rat plasma samples of 200 μl each were added to a micro centrifuge tube containing 1 ml of acetonitrile (0.07% trifluoroacetic acid, TFA) and stirred with a vortex mixer for 1 min. followed by centrifugation to remove precipitated plasma proteins. The supernatant solution was removed and evaporated, using a Speed Vac, to dryness. To the micro centrifuge tube containing the dry pellet was added 200 μl of 20:80 acetonitrile:water (containing 0.07% TFA). The sample was centrifuged to remove any insoluble material and the supernatant solution transferred to analytical vials for LC/MS MS analysis. The mass spectrometer was calibrated to detect the most abundant daughter ion/ions observed for each of the respective reference samples of HIP2B (M=286.0), HIP2 (M=287.1) and INGAP (M=212.2, 356.1, 373.9). Optimized HIP2B, HIP2 and INGAP plasma samples were analyzed on a C-18 reverse phase column (50 mm×2.0 mm, Varian Pursuit XRS3) using 0.07% TFA in H2O as buffer A and 0.07% TFA in acetonitrile as buffer B. A linear gradient of 98% A/2% B progressing to 100% B over 9 minutes was used at a flow rate of 0.4 ml/min.
The following plasma controls were treated as described above and used to establish a standard concentration curve: • 1. Blank plasma as a background control • 2. Five standard plasma samples containing 6.7×10^4, 6.7×10^3, 6.7×10^2, […] ng/ml of HIP2B, HIP2 and INGAP

Data set [4] concerns diabetic mice. Kind of data set: Streptozocin diabetic mouse model, 28 days twice-daily IP dosing (Example 2). The data set is classed as in vivo. The procedure:
In Vivo Studies. HIP3, HIP1 and HIP2 has been the subject of in vivo studies in mice. […] The subject number was selected to yield a sufficient number of diabetic animals for the study and animals were randomly assigned to study groups. All animals were dosed via intraperitoneal injections twice daily (am and pm) for 28 consecutive days. The timing of dose administration remained consistent (±2 hours) during the dosing phase.
Mice were injected intraperitoneally with streptozocin at 40 mg/kg in citrate buffer, pH 4.5, on 5 consecutive days in an attempt to render them diabetic. […] If the blood glucose level in any animal rose to above 400 mg/dL, the animal was treated with insulin. Every 3 days, at the same time each day, a nick was made on the tail and a drop of blood was collected. Glucose measurements were determined using a glucose meter. Group assignments and dose levels were as follows in Table 1:
Study endpoints included the following: changes in glucose; changes in insulin requirements; and histology of post-mortem pancreata.

By AUC is commonly meant concentration integrated over time. As a reminder, the Cmax is the peak of the concentration-time curve. One may read the Tmax as the time from dosing to the highest level.

On to `CC[C@H](C)[C@H](NC(C)=O)C(=O)NCC(=O)N[C@@H](CC(C)C)C(=O)N[C@@H](Cc1c[nH]cn1)C(=O)N[C@@H](CC(=O)O)C(=O)N1CCC[C@H]1C(=O)N[C@H](C(=O)N[C@@H](CCC(N)=O)C(=O)NCC(=O)N[C@H](C(=O)N[C@@H](CCC(=O)O)C(=O)N1CCC[C@H]1C(=O)N[C@@H](CC(N)=O)C(=O)NCC(=O)N[C@@H](CSSC[C@H](NC(=O)CNC(=O)[C@H](CC(N)=O)NC(=O)[C@@H]1CCCN1C(=O)[C@H](CCC(=O)O)NC(=O)[C@@H](NC(=O)CNC(=O)[C@H](CCC(N)=O)NC(=O)[C@@H](NC(=O)[C@@H]1CCCN1C(=O)[C@H](CC(=O)O)NC(=O)[C@H](Cc1c[nH]cn1)NC(=O)[C@H](CC(C)C)NC(=O)CNC(=O)[C@@H](NC(C)=O)[C@@H](C)CC)[C@@H](C)O)[C@@H](C)O)C(N)=O)C(N)=O)[C@@H](C)O)[C@@H](C)O` [HIP2B Cys-Dimer, (Ac-Ile-Gly-Leu-His-Asp-Pro-Thr-Gln-Gly-Thr-Glu-Pro-Asn-Gly-Cys-NH2)2] (I: Ac-IGLHDPTQGTEPNGC-NH2 / II: Ac-IGLHDPTQGTEPNGC-NH2; disulfide I:15-II:15), for which the “stability to plasma proteases” value in data set [1] is on record as “stable to plasma proteases for at least 1 hr”.

(Ac-IGLHDPTQGTEPNGC-NH2)2: the not cleaved result in data set [2] is given as “stable to plasma proteases for at least 1 hr”.

As for Ac-IGLHDPTQGTEPNG-NH2, the not cleaved entry in data set [2] was “completely stable to plasma proteases after 1 hr of incubation at 37 °C”.

On to Ac-IGLHDPTQGTEPNGC(PEG)-NH2, for which the not cleaved entry in data set [2] is “stable to plasma proteases for up to 1 hr”.

For the compound Ac-IGLHDPTQGTEPNGE-NH2, the not cleaved result in data set [2] was “completely stable up to 1 hr of plasma incubation”.

Consider “Ac-IGLHDPTQGTEPNGE-NH2 [HIP3B, Ac-Ile-Gly-Leu-His-Asp-Pro-Thr-Gln-Gly-Thr-Glu-Pro-Asn-Gly-Glu-NH2]”, for which, in data set [1], the “stability to plasma proteases” value was “completely stable”.

Consider “Ac-Ile-Gly-Leu-His-Asp-Pro-Thr-Gln-Gly-Thr-Glu-Pro-Asn-Gly-Cys(PEG)-NH2 [HIP2B Cys-PEG]”, for which the “stability to plasma proteases” value in data set [1] is recorded as “stable to plasma proteases for up to 1 hr”.

In data set [3] (IV), “IGLHDPSHGTLPNGS [INGAP, Ile-Gly-Leu-His-Asp-Pro-Ser-His-Gly-Thr-Leu-Pro-Asn-Gly-Ser, reference compound]” had a C1 h of 0 ng/mL. Besides, in data set [3], the F was 0.00, the “appearance of animals post-dosing” value was “appeared normal” and the “plasma levels” value is reported as “below the lower limit of quantitation; also recorded: undetectable at any time point”. Also, the C1 h in data set [3] (SQ) was determined as 0 ng/mL. Besides, the C0 in data set [3] (male, Sprague-Dawley, plasma, IV) was 18800 ng/mL. Moreover, the AUC in data set [3] (male, Sprague-Dawley, plasma, iv, footnote *extrapolated, read-out: AUC(0-∝), extrapolated) was 440 ng·h/mL. Moreover, the half-life in data set [3] (male, Sprague-Dawley, plasma, iv) is less than 1.5 min. For the same compound, the half-life in data set [3] (male, Sprague-Dawley, plasma, subcutaneous, SQ) was less than 1.5 min.

For IGLHDPTQGTEPNG, the cleaved bond entry in data set [2] is reported as “isoleucine-G, major, 1 min; also recorded: L-H, minor”.

For the compound “IGLHDPTQGTEPNG [HIP2, Ile-Gly-Leu-His-Asp-Pro-Thr-Gln-Gly-Thr-Glu-Pro-Asn-Gly]”, the “new component (proteolysis product)” value in data set [1] (1 min) is 5%; in data set [1] (30 min), “≈ 50%”; in data set [1] (60 min), “≈ 70%”. For the same compound, the C1 h in data set [3] (IV) and in data set [3] (SQ) was 0 ng/mL in each case. In data set [3], the F is on record as 0.01. For the same compound, the “appearance of animals post-dosing” value in data set [3] is “appeared normal”. Besides, the Cmax was determined as 29 ng/mL in data set [3] (in vivo, IV) and 32 ng/mL in data set [3] (in vivo, SQ, n = 5). Further, the Tmax in data set [3] (in vivo, IV) turned out to be 4.98 min; in data set [3] (in vivo, SQ) it was 4.98 min. For the same compound, the C0 in data set [3] (in vivo, IV) was 18800 ng/mL. Further, the “plasma levels” value in data set [3] was “very low levels of HIP2 were observed only at five minutes post dosage; also recorded: Very low levels of HIP2 were detected at 5 minutes; also recorded: observed only at the 5 minute time point”. Moreover, the AUC worked out at 2.7 ng·h/mL in data set [3] (in vivo, SQ, read-out: AUC(0-∝)) and 442 ng·h/mL in data set [3] (in vivo, iv, read-out: AUC(0-∝)). Further, the half-life in data set [3] (in vivo, SQ) was 1.2 min; in data set [3] (in vivo, iv) it was 1.2 min.

“IGLHDPTQGTEPNGE [HIP3, Ile-Gly-Leu-His-Asp-Pro-Thr-Gln-Gly-Thr-Glu-Pro-Asn-Gly-Glu]”: the remaining at 1 h, 0.498 mg/ml in data set [1] (after 60 min, read-out: starting concentration of peptide remaining) was approximately 50%.

WIGLHDPTQGTEPNG [HIP1]: the “lower mean glucose versus control” value in data set [4] (250 μg IP twice daily for 28 days, STZ diabetic mice) is reported as 14.7%. The “differentiation of progenitor cells within the pancreas into new islet structures” value in data set [4] (introduced into diabetic mice) is listed as “stimulate differentiation of progenitor cells within the pancreas into new islet structures”.
